Laboratory results: patent US10081632B2, “Substituted tetrahydropyrido[3′,2′:4,5]pyrrolo[1,2-α]pyrazine-2-carboxamides as RSK inhibitors” (Phoenix Molecular Designs, priority 2016, dated 2018)

Experiment: Solubility assessment, 20 mg/ml solution
Type: physicochemical
In short: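 Compounds from 100 mM DMSO stocks diluted to 20 mg/ml in DMEM with FBS and penicillin/streptomycin, vortexed and checked visually for precipitate. One compound instead diluted to 20 mg/ml in phosphate-buffered saline, solution pH 2.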

C[C@@H]1CNC(=O)c2cc3ccc(C(=O)Nc4cnn(Cc5ccc(N)cc5)c4)nc3n21 [Compound 18, (R)—N-(1-(4-aminobenzyl)-1H-pyrazol-4-yl)-9-methyl-6-oxo-6,7,8,9-tetrahydropyrido[3′,2′:4,5]pyrrolo[1,2-a]pyrazine-2-carboxamide]
Solubility, 20 mg/ml Solution (100 mM in DMSO diluted in DMEM growth media to 20 mg/ml): Soluble
pH of 20 mg/ml solution (DMSO stock diluted in DMEM, pH test strips): 9
